Reference: article PMC3857224, “Inhibition of DNA Glycosylases via Small Molecule Purine Analogs” (PLoS ONE, 2013)

What was measured:
NEIL1 = molecular target: T1, NEIL1 (Homo sapiens, UniProt Q96FI4); assay: qHTS fluorogenic glycosylase/AP lyase assay, 1536-well, Sp/Gh substrate; format: biochemical; settings: 5 concentrations
T1 construct: made in house
Experimental: The fluorogenic assay was miniaturized to 4 µL in 1536-well black solid plates by optimization of the enzyme and Sp/Gh substrate concentrations. Briefly, 3 µL of 25 nM NEIL1 were dispensed into each well of a 1536-well plate (except buffer in columns 3 and 4 as a negative control). Compounds (DMSO solutions) and control (DMSO only) (23 nL) were transferred to the plate via Kalypsys pintool. The plate was incubated for 15 min at room temperature, and then 1 µL of the Sp/Gh-containing DNA substrate (75 nM final concentration) was added to start the reaction. The plate was immediately transferred into the ViewLux reader for the kinetic fluorescence read. Initial rate data were normalized against uninhibited and no-enzyme controls and the resulting percent activities as a function of compound concentration were fitted using the Hill equation.
Having established the general principle for a glycosylase screening assay, further assay development was undertaken to enable HTS in which the reaction volumes were reduced by 5-fold to a total of 4 µL. Initially, the library of pharmacologically active compounds (LOPAC^1280) was screened for inhibitors of NEIL1 as a determination of the feasibility of this high-throughput method. […] All compounds were screened at 5 different concentrations that allowed for the initial estimation of inhibitory potency (IC50) values, as well as an evaluation of the shape of the response curves. In addition to the anticipated inhibitors (known DNA intercalators, such as ellipticine (IC50 = 2 µM)) and other small molecules that have been previously established to be promiscuous inhibitors (such as aurintricarboxylic acid (IC50<1 µM)), one interesting hit from this screen was CGP-74514A (NCGC ID is NCGC00015229) (Figure 5A). CGP-74514A is a known small molecule inhibitor of Cdk1 in which the structure of this molecule is based on a purine ring backbone.

duplex DNA ladder = assay: DNA ladder gel-shift intercalation assay; format: binding; settings: 40 µM compound, 20 min room temperature
Experimental: To test whether potential inhibitors could exert their inhibitory effect via DNA intercalation, 10 µL reactions containing 500 ng of a 100-bp DNA ladder were incubated at room temperature for 20 min with 40 µM of the selected compound. Ellipticine, a compound that is known to intercalate into duplex DNA was used as a control compound at a final concentration of 40 µM. Samples were resolved on a 1% agarose gel in 0.5X Tris-borate EDTA running buffer at 120 V for 2 h. Shifts in gel mobility were visualized by post staining with ethidium bromide and images were captured on a ChemiImager 5500 (Protein Simple, Santa Clara, CA).
To assay whether these inhibitors could block NEIL1 activity through DNA intercalation, a DNA ladder gel-shift assay was performed, with ellipticine serving as a positive control. A duplex DNA ladder was incubated with each inhibitor, and analyzed for electrophoretic mobility shift.

T1 sequence (Q96FI4 whole entry): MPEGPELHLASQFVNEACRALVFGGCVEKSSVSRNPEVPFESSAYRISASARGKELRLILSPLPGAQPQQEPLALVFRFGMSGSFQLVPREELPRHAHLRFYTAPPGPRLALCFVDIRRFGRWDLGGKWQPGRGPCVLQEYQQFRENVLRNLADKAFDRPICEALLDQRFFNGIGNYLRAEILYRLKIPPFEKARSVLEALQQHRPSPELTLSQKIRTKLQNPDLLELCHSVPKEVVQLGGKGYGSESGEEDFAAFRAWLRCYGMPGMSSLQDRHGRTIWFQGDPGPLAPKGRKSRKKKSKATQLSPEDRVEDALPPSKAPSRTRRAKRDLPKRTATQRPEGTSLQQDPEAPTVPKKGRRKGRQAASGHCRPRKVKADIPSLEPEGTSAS

Structure (SMILES): Cc1c2ccncc2c(C)c2c1[nH]c1ccccc12 [ellipticine, reference compound]
- IC50 (NEIL1): 2000 nM
- shift in electrophoretic mobility of DNA ladder (intercalation) (duplex DNA ladder): major reduction in the electrophoretic mobility
